# Literature values, collected in patent US20200338016A1, “COMBINATION BROAD-SPECTRUM ANTIBIOTIC PREPARATIONS FOR DRUG-RESISTANT PATHOGENS” (priority 2019, published 2020).
# Where two headings read alike, the source gives them in different places.
# How the values were obtained:
# [1] = system: antibiotic-resistant bacteria; conditions: against antibiotic-resistant bacteria
# [2] = system: antibiotic resistant bacteria; conditions: four antibiotic resistant bacteria
# [3] = system: antibiotic resistant C. albicans
# [4] = system: extensively multidrug resistant Acinetobacter baumannii
# [5] = system: Candida albicans (ATCC 10231)
# [6] = system: Escherichia coli (NCTC 10418)
# [7] = system: Bacillus subtilis (NCTC 8236)
# [8] = system: Aspergillus niger (ATCC 10578)
# [9] = system: Proteus vulgaris (NCTC 4175)
# [10] = system: Staphylococcus aureus (NCTC 6571)
# [11] = system: methicillin-resistant Staphylococus aureus
# [12] = system: multidrug resistant Acinetobacter baumannii; conditions: six strains of multidrug resistant Acinetobacter baumannii
# [13] = system: antibiotic-resistant streptococcus; conditions: 32 strains of antibiotic-resistant streptococcus
# MRSA = conditions: for MBEC: Minimal Biofilm Eradication Concentration, single agent; for MIC: Minimal Inhibitory Concentration
# [14] = system: multidrug resistant Klebsiella pneumonia; conditions: twenty strains of multidrug resistant Klebsiella pneumonia
# [15] = system: antibiotic resistant bacteria; conditions: four strains of antibiotic resistant bacteria; extracted from horseradish
# [16] = system: antibiotic resistant Staphylococcus aureus
# [17] = system: multidrug-resistant Acinetobacter baumannii
# [18] = system: methicillin-resistant Staphylococcus aureus; conditions: MRSA
compound,measurement,setting,value
O=c1c(O)c(-c2ccc(O)cc2)oc2cc(O)cc(O)c12 [kaempferol],antibiotic properties (in words),[1],antibiotic properties
same,concentration that kills,[2],5 milligrams per milliliter
O=C(O[C@@H]1Cc2c(O)cc(O)cc2O[C@@H]1c1ccc(O)cc1)c1cc(O)c(O)c(O)c1 [epiafzelechin gallate],antibiotic properties (in words),[1],antibiotic properties
O=C(/C=C/c1ccc(O)c(O)c1)O[C@@H]1C[C@](O)(C(=O)O)C[C@@H](O)[C@H]1O [chlorogenic acid],antibiotic properties (in words),[1],antibiotic properties
same,concentration that kills,[2],5 milligrams per milliliter
C=CC(C)(O)CCC=C(C)C (centres unmarked) [linalool],concentration that inhibits,[3],1580 micrograms per milliliter
C[C@H]1[C@H]2CC[C@H]3[C@@H]4CC=C5C[C@@H](N(C)C)CC[C@]5(C)[C@H]4CC[C@]23CN1C [conessine],concentration that inhibits,[4],10 milligrams per liter
piliostigmol,inhibition (in words),[5],inhibits
same,inhibition (in words),[6],inhibits
same,inhibition (in words),[7],inhibits
same,inhibition (in words),[8],inhibits
same,inhibition (in words),[9],inhibits
same,inhibition (in words),[10],inhibits
Oc1cc(O)c2c(c1)O[C@H](c1cc(O)c(O)c(O)c1)[C@@H](O)C2 [gallocatechin],antibiotic properties (in words),[1],antibiotic properties
CC(C)=CCCC(C)=CC=O [citral],concentration that kills,[11],0.06%
Oc1cc(O)c2c(c1)O[C@H](c1cc(O)c(O)c(O)c1)[C@H](O)C2 [epigallocatechin],antibiotic properties (in words),[1],antibiotic properties
O=c1c(O)cc([C@H]2Oc3cc(O)cc(O)c3C[C@H]2O)cc2c([C@H]3Oc4cc(O)cc(O)c4C[C@H]3O)cc(O)c(O)c12 [theaflavin],concentration that inhibits,[12],512 milligrams per liter
same,antibiotic properties (in words),[1],antibiotic properties
Cc1ccc(C(C)C)cc1O [Carvacrol],concentration that inhibits,[13],256 micrograms per milliliter
same,MBEC,MRSA,0.04 percentage of volume
same,MIC,MRSA,0.02 percentage of volume
"O=C(O[C@@H]1Cc2c(O)cc(O)cc2O[C@@H]1c1cc(O)c(O)c(O)c1)c1cc(O)c(O)c(O)c1 [EGCG, epigallocatechin gallate]",concentration that kills,[14],1024 microgram per milliliter
same,antibiotic properties (in words),[1],antibiotic properties
theasinesin A,antibiotic properties (in words),[1],antibiotic properties
Cn1cnc2c1c(=O)[nH]c(=O)n2C [theobromine],antibiotic properties (in words),[1],antibiotic properties
S=C=NCCc1ccccc1 [phenylethyl isothiocyanate],concentration that kills,[15],2000 microgram per milliliter
Cn1c(=O)c2c(ncn2C)n(C)c1=O [caffeine],antibiotic properties (in words),[1],antibiotic properties
catechin gallate,antibiotic properties (in words),[1],antibiotic properties
O=C(O[C@@H]1Cc2c(O)cc(O)cc2O[C@@H]1c1cc(O)c(=O)c2c(O)c(O)cc([C@H]3Oc4cc(O)cc(O)c4C[C@H]3OC(=O)c3cc(O)c(O)c(O)c3)c2c1)c1cc(O)c(O)c(O)c1 [theaflavin digallate],antibiotic properties (in words),[1],antibiotic properties
CC(C)=CCC/C(C)=C/CO [geraniol],concentration that inhibits,[3],1580 micrograms per milliliter
pinene,concentration that inhibits,[16],20 microliters per milliliter
O=C(O[C@@H]1O[C@@H]2COC(=O)c3cc(O)c(O)c(O)c3-c3c(cc(O)c(O)c3O)C(=O)O[C@H]([C@H]1O)[C@@H]2O)c1cc(O)c(O)c(O)c1 [corilagin],concentration that inhibits,[17],"1,000 micrograms per milliliter"
O=c1cc(-c2ccc(O)c(O)c2)oc2cc(O)cc(O)c12 [luteolin],concentration that kills,[2],5 milligrams per milliliter
Cn1c(=O)c2[nH]cnc2n(C)c1=O [theophylline],antibiotic properties (in words),[1],antibiotic properties
theaflavin gallate,antibiotic properties (in words),[1],antibiotic properties
catechin,antibiotic properties (in words),[1],antibiotic properties
same,concentration that kills,[2],5 milligrams per milliliter
O=C(O)/C=C/c1ccc(O)c(O)c1 [caffeic acid],concentration that kills,[14],1024 microgram per milliliter
C=CCc1ccc(O)c(OC)c1 [Eugenol],MBC,MRSA; Minimal Bactericidal Concentration,0.08 percentage of volume
same,MBEC,MRSA,0.08 percentage of volume
same,MIC,MRSA,0.04 percentage of volume
O=c1c(O)c(-c2ccc(O)c(O)c2)oc2cc(O)cc(O)c12 [quercetin],concentration that kills,[14],1024 microgram per milliliter
same,antibiotic properties (in words),[1],antibiotic properties
same,concentration that kills,[2],5 milligrams per milliliter
O=c1cc(-c2ccccc2)oc2c(O)c(O)cc(O)c12 [norwogonin],concentration that inhibits,[17],"1,000 micrograms per milliliter"
COc1cc(/C=C/C(=O)O)ccc1O [ferulic acid],concentration that kills,[2],5 milligrams per milliliter
Oc1ccc([C@H]2Oc3cc(O)cc(O)c3C[C@H]2O)cc1 [epiafzelechin],antibiotic properties (in words),[1],antibiotic properties
CC1(C)[C@@H](O)CC[C@]2(C)[C@H]3C(=O)C=C4[C@@H]5C[C@@](C)(C(=O)O)CC[C@]5(C)CC[C@@]4(C)[C@]3(C)CC[C@@H]12 [glycerrhetinic acid],concentration that kills,[18],0.223 µM
trechebulin,concentration that inhibits,[17],"1,000 micrograms per milliliter"
O=C(O[C@@H]1Cc2c(O)cc(O)cc2O[C@@H]1c1ccc(O)c(O)c1)c1cc(O)c(O)c(O)c1 [epicatechin gallate],antibiotic properties (in words),[1],antibiotic properties
